Columns and labels:
Experiment in all cases: fitness (endpoint OD595 vs no drug) (fraction); higher = more growth
[1] = test system: B. subtilis 168
Summary of the method: (§1)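 Each well of a 384-well plate received 30 µl of culture at OD595 0.01, or 55 µl for S. pneumoniae. TSB, LB Lennox or CY served as media at 37 °C. OD595 was taken every 30 min for 14 h and corrected by subtracting the first reading. Fitness is the optical density at stationary-phase entry divided by the robust mean of no-drug controls, capped at 1.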

[2] = test system: S. aureus DSM 20231
Summary of the method: as §1

[3] = test system: S. pneumoniae D39V
Summary of the method: as §1

CN(C)[C@@H]1C(O)=C(C(N)=O)C(=O)[C@@]2(O)C(O)=C3C(=O)c4c(O)ccc(Cl)c4[C@@](C)(O)[C@H]3C[C@@H]12 [Chlortetracycline] + CC(=O)NC[C@H]1CN(c2ccc(N3CCOCC3)c(F)c2)C(=O)O1 [Linezolid]
one replicate
Details	fitness
[1], first compound 0.0475 µg/mL, partner 0.0625 µg/mL	0.751
[1], first compound 0.095 µg/mL, partner 0.0625 µg/mL	0.53
[1], first compound 0.19 µg/mL, partner 0.0625 µg/mL	0.213
[2], first compound 0.006 µg/mL, partner 0.125 µg/mL	0.649
[2], first compound 0.006 µg/mL, partner 0.25 µg/mL	0.59
[2], first compound 0.006 µg/mL, partner 0.5 µg/mL	0.213
[2], first compound 0.012 µg/mL, partner 1 µg/mL	0.0536
[2], first compound 0.024 µg/mL, partner 1 µg/mL	0.0397
[2], first compound 0.048 µg/mL, partner 1 µg/mL	0.0171

Details	fitness
[1], first compound 0.0475 µg/mL, partner 0.25 µg/mL	0.0413
[1], first compound 0.0475 µg/mL, partner 0.5 µg/mL	0.0371
[1], first compound 0.095 µg/mL, partner 0.25 µg/mL	0.0555
[1], first compound 0.095 µg/mL, partner 0.5 µg/mL	0.0371
[1], first compound 0.19 µg/mL, partner 0.125 µg/mL	0.0875
[1], first compound 0.19 µg/mL, partner 0.25 µg/mL	0.0467
[1], first compound 0.19 µg/mL, partner 0.5 µg/mL	0.0344
[2], first compound 0.012 µg/mL, partner 0.125 µg/mL	0.516
[2], first compound 0.012 µg/mL, partner 0.25 µg/mL	0.423
[2], first compound 0.012 µg/mL, partner 0.5 µg/mL	0.135
[2], first compound 0.024 µg/mL, partner 0.25 µg/mL	0.179
[2], first compound 0.024 µg/mL, partner 0.5 µg/mL	0.0849
[2], first compound 0.048 µg/mL, partner 0.125 µg/mL	0.141
[2], first compound 0.048 µg/mL, partner 0.25 µg/mL	0.0729
[2], first compound 0.048 µg/mL, partner 0.5 µg/mL	0.0288
[3], first compound 0.012 µg/mL, partner 0.105 µg/mL	0.785
[3], first compound 0.012 µg/mL, partner 0.21 µg/mL	0.685
[3], first compound 0.012 µg/mL, partner 0.42 µg/mL	0.422
[3], first compound 0.024 µg/mL, partner 0.105 µg/mL	0.739
[3], first compound 0.024 µg/mL, partner 0.21 µg/mL	0.585
[3], first compound 0.024 µg/mL, partner 0.42 µg/mL	0.251
[3], first compound 0.048 µg/mL, partner 0.105 µg/mL	0.609
[3], first compound 0.048 µg/mL, partner 0.21 µg/mL	0.387
[3], first compound 0.048 µg/mL, partner 0.42 µg/mL	0.211
[3], first compound 0.375 µg/mL, partner 0.2 µg/mL	0.0262
[3], first compound 0.375 µg/mL, partner 0.4 µg/mL	0.028
[3], first compound 0.375 µg/mL, partner 0.8 µg/mL	0.0276
[3], first compound 0.75 µg/mL, partner 0.2 µg/mL	0.025
[3], first compound 0.75 µg/mL, partner 0.4 µg/mL	0.04
[3], first compound 0.75 µg/mL, partner 0.8 µg/mL	0.0503
[3], first compound 1.5 µg/mL, partner 0.2 µg/mL	0.0494
[3], first compound 1.5 µg/mL, partner 0.4 µg/mL	0.0334
[3], first compound 1.5 µg/mL, partner 0.8 µg/mL	0.044

CN(C)[C@@H]1C(O)=C(C(N)=O)C(=O)[C@@]2(O)C(O)=C3C(=O)c4c(O)ccc(Cl)c4[C@@](C)(O)[C@H]3C[C@@H]12 [Chlortetracycline] + CO/N=C(\C(=O)N[C@@H]1C(=O)N2C(C(=O)O)=C(COC(C)=O)CS[C@H]12)c1csc(N)n1 [Cefotaxime]
fitness, one replicate
Details	partner 0.00775 µg/mL	partner 0.0155 µg/mL	partner 0.031 µg/mL	partner 0.039 µg/mL	partner 0.0625 µg/mL	partner 0.078 µg/mL	partner 0.125 µg/mL	partner 0.156 µg/mL	partner 0.25 µg/mL	partner 0.312 µg/mL
[1], first compound 0.0475 µg/mL	0.783	0.597	0.5	–	0.532	–	0.381	–	0.326	–
[1], first compound 0.095 µg/mL	0.703	0.536	0.38	–	0.458	–	0.283	–	0.186	–
[1], first compound 0.19 µg/mL	0.413	0.149	0.0377	–	0.135	–	0.0644	–	0.06	–
[2], first compound 0.006 µg/mL	–	–	–	0.775	–	0.689	–	0.677	–	0.635

Details	fitness
[1], first compound 0.0475 µg/mL, partner 0.5 µg/mL	0.326
[1], first compound 0.0475 µg/mL, partner 1 µg/mL	0.19
[1], first compound 0.0475 µg/mL, partner 2 µg/mL	0.147
[1], first compound 0.095 µg/mL, partner 0.5 µg/mL	0.199
[1], first compound 0.095 µg/mL, partner 1 µg/mL	0.0513
[1], first compound 0.095 µg/mL, partner 2 µg/mL	0.117
[1], first compound 0.19 µg/mL, partner 0.5 µg/mL	0.129
[1], first compound 0.19 µg/mL, partner 1 µg/mL	0.0806
[1], first compound 0.19 µg/mL, partner 2 µg/mL	0.111
[2], first compound 0.012 µg/mL, partner 0.039 µg/mL	0.533
[2], first compound 0.012 µg/mL, partner 0.078 µg/mL	0.608
[2], first compound 0.012 µg/mL, partner 0.156 µg/mL	0.561
[2], first compound 0.012 µg/mL, partner 0.312 µg/mL	0.44
[2], first compound 0.024 µg/mL, partner 0.312 µg/mL	0.271
[2], first compound 0.048 µg/mL, partner 0.039 µg/mL	0.258
[2], first compound 0.048 µg/mL, partner 0.078 µg/mL	0.137
[2], first compound 0.048 µg/mL, partner 0.156 µg/mL	0.125
[2], first compound 0.048 µg/mL, partner 0.312 µg/mL	0.108
[3], first compound 0.012 µg/mL, partner 0.0018 µg/mL	0.88
[3], first compound 0.012 µg/mL, partner 0.0035 µg/mL	0.94
[3], first compound 0.012 µg/mL, partner 0.007 µg/mL	0.885
[3], first compound 0.024 µg/mL, partner 0.0018 µg/mL	0.664
[3], first compound 0.024 µg/mL, partner 0.0035 µg/mL	0.641
[3], first compound 0.024 µg/mL, partner 0.007 µg/mL	0.629
[3], first compound 0.048 µg/mL, partner 0.0018 µg/mL	0.301
[3], first compound 0.048 µg/mL, partner 0.0035 µg/mL	0.251
[3], first compound 0.048 µg/mL, partner 0.007 µg/mL	0.238
[3], first compound 0.375 µg/mL, partner 0.0018 µg/mL	0.0683
[3], first compound 0.375 µg/mL, partner 0.0035 µg/mL	0.0612
[3], first compound 0.375 µg/mL, partner 0.007 µg/mL	0.0585
[3], first compound 0.75 µg/mL, partner 0.0018 µg/mL	0.086
[3], first compound 0.75 µg/mL, partner 0.0035 µg/mL	0.0734
[3], first compound 0.75 µg/mL, partner 0.007 µg/mL	0.0886
[3], first compound 1.5 µg/mL, partner 0.0018 µg/mL	0.0498
[3], first compound 1.5 µg/mL, partner 0.0035 µg/mL	0.0657
[3], first compound 1.5 µg/mL, partner 0.007 µg/mL	0.0651

CN(C)[C@@H]1C(O)=C(C(N)=O)C(=O)[C@@]2(O)C(O)=C3C(=O)c4c(O)ccc(Cl)c4[C@@](C)(O)[C@H]3C[C@@H]12 [Chlortetracycline] + CN1C2=CC=CC=C2N=C3C1=CC=CC3=O [Pyocyanin]
fitness
Details	partner 0.325 µg/mL	partner 0.65 µg/mL	partner 1.25 µg/mL	partner 1.3 µg/mL	partner 2.5 µg/mL	partner 5 µg/mL
[1], first compound 0.0475 µg/mL	–	–	0.837	–	0.825	0.692
[1], first compound 0.095 µg/mL	–	–	0.774	–	0.7	0.597
[1], first compound 0.19 µg/mL	–	–	0.594	–	0.529	0.416
[2], first compound 0.012 µg/mL	–	–	0.487	–	0.43	0.359
[2], first compound 0.024 µg/mL	–	–	0.185	–	0.147	0.121
[2], first compound 0.048 µg/mL	–	–	0.0813	–	0.0826	0.0871
[3], first compound 0.375 µg/mL	0.0228	0.0497	–	0.031	–	–
[3], first compound 0.75 µg/mL	0.0553	0.0813	–	0.104	–	–
[3], first compound 1.5 µg/mL	0.0507	0.0698	–	0.0588	–	–

one replicate
Details	fitness
[2], first compound 0.006 µg/mL, partner 1.25 µg/mL	0.748
[2], first compound 0.006 µg/mL, partner 2.5 µg/mL	0.692
[2], first compound 0.006 µg/mL, partner 5 µg/mL	0.602
[3], first compound 0.012 µg/mL, partner 0.325 µg/mL	0.893
[3], first compound 0.012 µg/mL, partner 0.65 µg/mL	0.958
[3], first compound 0.024 µg/mL, partner 0.325 µg/mL	0.932
[3], first compound 0.024 µg/mL, partner 0.65 µg/mL	0.885
[3], first compound 0.048 µg/mL, partner 0.325 µg/mL	0.858
[3], first compound 0.048 µg/mL, partner 0.65 µg/mL	0.868

CN(C)[C@@H]1C(O)=C(C(N)=O)C(=O)[C@@]2(O)C(O)=C3C(=O)c4c(O)ccc(Cl)c4[C@@](C)(O)[C@H]3C[C@@H]12 [Chlortetracycline] + C[C@@H]1O[C@@H]1P(=O)(O)O [Fosfomycin]
Details	fitness
[1], first compound 0.0475 µg/mL, partner 1.562 µg/mL	0.713
[1], first compound 0.0475 µg/mL, partner 3.124 µg/mL	0.636
[1], first compound 0.0475 µg/mL, partner 6.248 µg/mL	0.498
[1], first compound 0.095 µg/mL, partner 1.562 µg/mL	0.629
[1], first compound 0.095 µg/mL, partner 3.124 µg/mL	0.557
[1], first compound 0.095 µg/mL, partner 6.248 µg/mL	0.408
[1], first compound 0.19 µg/mL, partner 3.124 µg/mL	0.336
[1], first compound 0.19 µg/mL, partner 6.248 µg/mL	0.19
[2], first compound 0.012 µg/mL, partner 0.781 µg/mL	0.309
[2], first compound 0.012 µg/mL, partner 1.562 µg/mL	0.145
[2], first compound 0.012 µg/mL, partner 3.124 µg/mL	0.0645
[2], first compound 0.024 µg/mL, partner 0.781 µg/mL	0.154
[2], first compound 0.024 µg/mL, partner 1.562 µg/mL	0.0553
[2], first compound 0.024 µg/mL, partner 3.124 µg/mL	0.0457
[2], first compound 0.048 µg/mL, partner 0.781 µg/mL	0.0506
[2], first compound 0.048 µg/mL, partner 1.562 µg/mL	0.0192
[2], first compound 0.048 µg/mL, partner 3.124 µg/mL	0.0143
[3], first compound 0.012 µg/mL, partner 1.25 µg/mL	0.936
[3], first compound 0.012 µg/mL, partner 2.5 µg/mL	0.881
[3], first compound 0.012 µg/mL, partner 5 µg/mL	0.777
[3], first compound 0.024 µg/mL, partner 1.25 µg/mL	0.629
[3], first compound 0.024 µg/mL, partner 2.5 µg/mL	0.625
[3], first compound 0.024 µg/mL, partner 5 µg/mL	0.628
[3], first compound 0.048 µg/mL, partner 1.25 µg/mL	0.303
[3], first compound 0.048 µg/mL, partner 2.5 µg/mL	0.31
[3], first compound 0.048 µg/mL, partner 5 µg/mL	0.319
[3], first compound 0.375 µg/mL, partner 1.25 µg/mL	0.045
[3], first compound 0.375 µg/mL, partner 2.5 µg/mL	0.0463
[3], first compound 0.375 µg/mL, partner 5 µg/mL	0.0538
[3], first compound 0.75 µg/mL, partner 1.25 µg/mL	0.0544
[3], first compound 0.75 µg/mL, partner 2.5 µg/mL	0.0368
[3], first compound 0.75 µg/mL, partner 5 µg/mL	0.0501
[3], first compound 1.5 µg/mL, partner 1.25 µg/mL	0.0742
[3], first compound 1.5 µg/mL, partner 2.5 µg/mL	0.0712
[3], first compound 1.5 µg/mL, partner 5 µg/mL	0.0865

[2], first compound 0.006 µg/mL, one replicate
Details	fitness
partner 0.781 µg/mL	0.609
partner 1.562 µg/mL	0.47
partner 3.124 µg/mL	0.205

Reference: the supplement of paper PMC10627819
